Assay: xn = mol fraction of the nth substance listed
Conditions: 100 kPa, Liquid, Vibrating tube method

CCCC(C)O (stereo not given) [pentan-2-ol] + O
mass density [kg/m3]
Conditions | x1 = 0.00105 | x1 = 0.0021 | x1 = 0.00413 | x1 = 0.00599 | x1 = 0.00677 | x1 = 0.00857 | x1 = 1
273.65 K | 999.095 | 998.354 | 997.02 | 995.922 | 995.484 | 994.604 | 824
274.15 K | 999.119 | 998.377 | 997.038 | 995.939 | 995.499 | 994.61 | 823.6
274.65 K | 999.148 | 998.4 | 997.057 | 995.957 | 995.51 | 994.622 | 823.2
275.15 K | 999.16 | 998.416 | 997.073 | 995.965 | 995.523 | 994.625 | 822.8
275.65 K | 999.177 | 998.43 | 997.08 | 995.972 | 995.524 | 994.627 | 822.5
276.15 K | 999.187 | 998.44 | 997.09 | 995.972 | 995.527 | 994.622 | 822.1
276.65 K | 999.193 | 998.445 | 997.092 | 995.974 | 995.524 | 994.619 | 821.7
277.15 K | 999.185 | 998.444 | 997.082 | 995.964 | 995.512 | 994.604 | 821.3
277.65 K | 999.19 | 998.439 | 997.076 | 995.952 | 995.498 | 994.583 | 820.9
278.15 K | 999.187 | 998.426 | 997.066 | 995.938 | 995.484 | 994.566 | 820.6
278.65 K | 999.177 | 998.416 | 997.053 | 995.923 | 995.466 | 994.542 | 820.2
279.15 K | 999.163 | 998.401 | 997.037 | 995.898 | 995.439 | 994.519 | 819.8
279.65 K | 999.133 | 998.376 | 997.002 | 995.867 | 995.403 | 994.471 | 819.4
280.15 K | 999.115 | 998.36 | 996.978 | 995.84 | 995.375 | 994.439 | 819.1
280.65 K | 999.09 | 998.332 | 996.951 | 995.806 | 995.342 | 994.408 | 818.7
281.15 K | 999.058 | 998.301 | 996.915 | 995.769 | 995.301 | 994.365 | 818.3
281.65 K | 999.025 | 998.267 | 996.878 | 995.731 | 995.261 | 994.318 | 817.9
282.15 K | 998.992 | 998.234 | 996.841 | 995.688 | 995.214 | 994.273 | 817.5

CCC(O)CC [3-pentanol] + O
mass density [kg/m3]
Conditions | x1 = 0.00117 | x1 = 0.00216 | x1 = 0.00361 | x1 = 0.00517 | x1 = 0.00616 | x1 = 0.00773 | x1 = 0.00866 | x1 = 1
273.65 K | 999.121 | 998.483 | 997.636 | 996.791 | 996.228 | 995.539 | 995.114 | 835.7
274.15 K | 999.145 | 998.504 | 997.655 | 996.809 | 996.243 | 995.55 | 995.121 | 835.3
274.65 K | 999.166 | 998.525 | 997.681 | 996.827 | 996.257 | 995.562 | 995.131 | 834.9
275.15 K | 999.182 | 998.545 | 997.694 | 996.837 | 996.27 | 995.568 | 995.137 | 834.5
275.65 K | 999.2 | 998.559 | 997.704 | 996.842 | 996.271 | 995.572 | 995.134 | 834.1
276.15 K | 999.21 | 998.568 | 997.714 | 996.849 | 996.277 | 995.571 | 995.134 | 833.7
276.65 K | 999.216 | 998.574 | 997.718 | 996.852 | 996.271 | 995.565 | 995.128 | 833.3
277.15 K | 999.214 | 998.574 | 997.712 | 996.843 | 996.263 | 995.555 | 995.116 | 832.9
277.65 K | 999.21 | 998.562 | 997.704 | 996.832 | 996.251 | 995.537 | 995.092 | 832.5
278.15 K | 999.206 | 998.556 | 997.698 | 996.822 | 996.238 | 995.523 | 995.08 | 832.1
278.65 K | 999.194 | 998.549 | 997.686 | 996.805 | 996.219 | 995.503 | 995.05 | 831.7
279.15 K | 999.182 | 998.533 | 997.668 | 996.789 | 996.197 | 995.475 | 995.023 | 831.3
279.65 K | 999.159 | 998.5 | 997.635 | 996.752 | 996.159 | 995.434 | 994.98 | 830.9
280.15 K | 999.14 | 998.48 | 997.609 | 996.729 | 996.134 | 995.406 | 994.948 | 830.5
280.65 K | 999.119 | 998.457 | 997.582 | 996.698 | 996.103 | 995.368 | 994.912 | 830.1
281.15 K | 999.084 | 998.424 | 997.551 | 996.663 | 996.061 | 995.327 | 994.867 | 829.7
281.65 K | 999.053 | 998.388 | 997.515 | 996.619 | 996.024 | 995.286 | 994.819 | 829.3
282.15 K | 999.017 | 998.353 | 997.476 | 996.581 | 995.981 | 995.24 | 994.77 | 828.9

CCC(C)(C)O [2-methylbutan-2-ol] + O
mass density [kg/m3]
Conditions | x1 = 0.00122 | x1 = 0.00255 | x1 = 0.00412 | x1 = 0.00507 | x1 = 0.00607 | x1 = 0.0079 | x1 = 0.00994 | x1 = 0.01252 | x1 = 0.01488 | x1 = 1
273.65 K | 999.033 | 998.16 | 997.224 | 996.687 | 996.151 | 995.216 | 994.277 | 993.23 | 992.364 | 826.7
274.15 K | 999.058 | 998.181 | 997.247 | 996.703 | 996.17 | 995.235 | 994.284 | 993.232 | 992.356 | 826.3
274.65 K | 999.08 | 998.206 | 997.266 | 996.721 | 996.184 | 995.25 | 994.296 | 993.233 | 992.353 | 825.8
275.15 K | 999.099 | 998.222 | 997.286 | 996.74 | 996.2 | 995.262 | 994.3 | 993.231 | 992.341 | 825.4
275.65 K | 999.114 | 998.237 | 997.295 | 996.749 | 996.207 | 995.267 | 994.301 | 993.227 | 992.328 | 824.9
276.15 K | 999.13 | 998.247 | 997.305 | 996.76 | 996.213 | 995.266 | 994.297 | 993.215 | 992.313 | 824.5
276.65 K | 999.132 | 998.253 | 997.309 | 996.765 | 996.216 | 995.269 | 994.293 | 993.203 | 992.291 | 824
277.15 K | 999.134 | 998.251 | 997.307 | 996.759 | 996.215 | 995.258 | 994.279 | 993.181 | 992.265 | 823.5
277.65 K | 999.129 | 998.246 | 997.299 | 996.748 | 996.2 | 995.243 | 994.261 | 993.157 | 992.23 | 823.1
278.15 K | 999.126 | 998.235 | 997.295 | 996.741 | 996.193 | 995.233 | 994.246 | 993.13 | 992.197 | 822.6
278.65 K | 999.113 | 998.23 | 997.279 | 996.728 | 996.177 | 995.217 | 994.22 | 993.102 | 992.159 | 822.2
279.15 K | 999.102 | 998.216 | 997.265 | 996.713 | 996.158 | 995.193 | 994.199 | 993.072 | 992.123 | 821.7
279.65 K | 999.075 | 998.186 | 997.235 | 996.681 | 996.124 | 995.158 | 994.162 | 993.023 | 992.067 | 821.3
280.15 K | 999.056 | 998.17 | 997.213 | 996.659 | 996.101 | 995.132 | 994.13 | 992.984 | 992.025 | 820.8
280.65 K | 999.032 | 998.146 | 997.189 | 996.631 | 996.074 | 995.095 | 994.093 | 992.943 | 991.972 | 820.3
281.15 K | 999.006 | 998.115 | 997.154 | 996.599 | 996.039 | 995.06 | 994.049 | 992.894 | 991.918 | 819.9
281.65 K | 998.97 | 998.079 | 997.123 | 996.561 | 996 | 995.021 | 994.007 | 992.846 | 991.86 | 819.4
282.15 K | 998.939 | 998.044 | 997.086 | 996.522 | 995.962 | 994.976 | 993.958 | 992.79 | 991.8 | 819
